Like-named read-outs stand apart in the source and are kept apart here.
What was measured:
[1] = target: T1, human TRPM8 (Homo sapiens, UniProt Q7Z2W7); details: maximal currents at 5 µM compared to L-menthol 100 µM; cited from earlier work
T1 construct: expressed in transfected cells; host or cells: HEK-293/TRPM8 exon1 K3 cells

[2] = system: C4-2B cells; test: DNA synthesis (BrdU incorporation) in C4-2B cells; assay type: cell-based, human; details: cycling cells, 18 h, 10 μM
Method: (§1) Cells on coverslips were pulsed in vivo with BrdU (Sigma-Aldrich; at 100 μM, final concentration) and left unchallenged or challenged with 10 nM R1881 for 18 h, in the absence or presence of the indicated compounds. Cells were fixed, permeabilized, washed and the BrdU incorporation was analysed as reported. Nuclei were stained with Hoechst and cells on coverslips were scored by IF microscopy, using a DMLB Leica (Leica) fluorescent microscope, equipped with HCX PL Apo 63 × oil objective. Different fields from each coverslip were analyzed and BrdU incorporation was calculated by the formula: percentage of BrdU-positive cells = (No. of BrdU-positive cells/No. of total cells) × 100. Data in the graphs derive from at least 1000 scored cells for each coverslip. Representative images were captured using DC480 camera (Leica) and acquired using Leica Suite software. They are representative of three different experiments.

[3] = system: PSA; test: PSA secretion (ELISA) from LNCaP cells; assay type: cell-based, human; details: enzalutamide 10 μM
Method: It was done in culture medium using the PSA ELISA kit (Abnova-Taiwan Corporation, Taiwan), according to the manufacturer’s instructions. Released PSA was analyzed at 450 nm using the EnSpire Multimode Plate Reader (Perkin-Elmer, U.S.A.).

[4] = system: FAK, paxillin, ERK, RSK and Src tyrosine kinase; test: Western blot of androgen-induced rapid actions in LNCaP cells (Fig. 6c); assay type: cell-based, human; details: 10 nM R1881, 10 min, enzalutamide 10 μM
Source text: (§2) All performed as reported. The mouse monoclonal anti-AR (441; Santa Cruz) antibody was used in Co-Ip or WB approaches. TRPM8 was detected using the rabbit polyclonal anti-TRPM8 (NBP1-97311; Novus Biological). […] The rabbit polyclonal anti-ERK (C-14; Santa Cruz), antibody was used to detect total ERK. FAK and P-Tyr397 FAK were detected using the mouse monoclonal anti-FAK (Clone 77/610077 BD Transduction Laboratories) or anti P-Tyr397 FAK (Clone 14/611722; BD Transduction Laboratories) antibodies, respectively. P-Tyr118 paxillin and total paxillin were detected using the rabbit polyclonal anti-P-Y118 (#2541, Cell Signaling) or the mouse monoclonal anti-paxillin (clone 349; BD Biosciences) antibodies, respectively. […] P-Tyr 416 Src and Src were detected using the rabbit monoclonal anti P-Tyr 416 Src (#6943; Cell Signaling) or the mouse monoclonal anti Src (Calbiochem) antibodies, respectively. ERα and ERβ were detected using the rabbit polyclonal anti-ERα (543; Santa Cruz) or anti-ERβ (Upstate Biotechnology, U.S.A.) antibodies. Cyclin D1, p27 and Cdk4 were stained using the mouse monoclonal anti-cyclin D1 (clone AM29; from Zymed Laboratories Inc.), the rabbit polyclonal anti-p27 (C-19; Santa Cruz) or anti Cdk-4 (c-22; Santa Cruz) antibodies, respectively. The mouse monoclonal anti-tubulin (Sigma-Aldrich) antibody was used to detect tubulin. The ECL system (GE Healthcare) was employed to reveal immune-reactive proteins. Densitometric analysis of WB was performed by using Image J Software (https://imagej.nih.gov/ij).

[5] = target: T2, AR/TRPM8 complex (Homo sapiens, UniProt Q7Z2W7); test: Co-IP of AR with TRPM8 in LNCaP cells; assay type: cell-based; details: for AR, Average (n=3) / TRPM8, Average (n=3): Fig 6e, R1881 + enz 10 μM
T2 construct: We here dissected an endogenous non-genomic mechanism of the TRPM8 channel regulation by androgens in PC cells; endogenous in cells; host or cells: LNCaP cells
T2 sequence (Q7Z2W7 whole entry, one chain of several): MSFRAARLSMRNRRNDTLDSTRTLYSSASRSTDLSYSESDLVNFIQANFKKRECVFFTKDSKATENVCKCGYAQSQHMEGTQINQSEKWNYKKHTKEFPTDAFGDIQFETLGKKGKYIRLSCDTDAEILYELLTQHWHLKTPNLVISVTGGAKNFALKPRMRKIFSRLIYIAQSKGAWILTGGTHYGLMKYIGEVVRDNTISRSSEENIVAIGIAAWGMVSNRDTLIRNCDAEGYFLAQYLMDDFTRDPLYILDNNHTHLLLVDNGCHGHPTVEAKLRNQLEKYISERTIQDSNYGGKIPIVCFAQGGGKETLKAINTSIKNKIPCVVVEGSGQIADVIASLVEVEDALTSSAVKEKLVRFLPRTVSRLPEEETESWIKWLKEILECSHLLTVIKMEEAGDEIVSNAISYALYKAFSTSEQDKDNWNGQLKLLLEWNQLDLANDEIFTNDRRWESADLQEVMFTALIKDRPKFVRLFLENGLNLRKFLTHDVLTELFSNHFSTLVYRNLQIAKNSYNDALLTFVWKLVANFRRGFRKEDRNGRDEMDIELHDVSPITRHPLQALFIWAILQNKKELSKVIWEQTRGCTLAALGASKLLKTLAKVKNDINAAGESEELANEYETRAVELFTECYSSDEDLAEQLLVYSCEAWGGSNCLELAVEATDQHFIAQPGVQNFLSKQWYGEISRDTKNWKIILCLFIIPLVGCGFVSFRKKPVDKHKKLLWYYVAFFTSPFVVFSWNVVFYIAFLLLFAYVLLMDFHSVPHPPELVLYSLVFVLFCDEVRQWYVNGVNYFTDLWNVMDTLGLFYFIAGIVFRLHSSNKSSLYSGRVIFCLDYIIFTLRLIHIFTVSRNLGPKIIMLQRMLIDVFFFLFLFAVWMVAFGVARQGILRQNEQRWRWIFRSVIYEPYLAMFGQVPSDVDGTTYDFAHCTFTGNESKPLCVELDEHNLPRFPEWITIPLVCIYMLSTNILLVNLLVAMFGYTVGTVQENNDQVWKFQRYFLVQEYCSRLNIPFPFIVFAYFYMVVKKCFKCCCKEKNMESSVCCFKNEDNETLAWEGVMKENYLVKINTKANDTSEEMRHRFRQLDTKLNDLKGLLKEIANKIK
Source text: as §2

[6] = system: AR; test: Western blot of AR in LNCaP lysate proteins; assay type: cell-based, human; details: Fig 6e, R1881 + enz 10 μM
Source text: as §2

[7] = system: TRPM8; test: Western blot of TRPM8 in LNCaP lysate proteins; assay type: cell-based, human; details: Fig 6e, R1881 + enz 10 μM
Source text: as §2

[8] = target: T1, human TRPM8; test: Patch-clamp assay on TRPM8 channels (HEK-293/TRPM8 cells, menthol-evoked currents); assay type: cell-based; details: for inhibitory effect on menthol-evoked TRPM8 currents: dependence on concentration
Method: Patch clamp experiments for compounds 4, 5 and 9 were done as described. HEK-293/TRPM8 exon 1 cells were seeded 3 or 4 days before experiment at a concentration of 4 and 2.5 million cells, respectively, onto a T225 flask. Before each experiment, cells were washed two times with D-PBS without Ca^2+/Mg^2+ (Euroclone, Milan, Italy) and trypsinized with trypsin−EDTA (Sigma-Aldrich; diluted 1/10). Cells were suspended in 25 mL of EX-CELL ACF CHO medium (Sigma-Aldrich, Milan, Italy), 0.625 mL of HEPES (Lonza, Walkersville, USA), 0.25 mL of 100 × penicillin/streptomycin (Lonza, Walkersville, USA), 0.1 mL of soybean trypsin inhibitor 10 mg/mL (Sigma-Aldrich), and placed on the automated patch-clamp platform (QPatch 16X, Sophion Bioscience, Ballerup, Denmark). A stock solution of L-Menthol (1 M, 100% DMSO), used as reference agonist, was freshly prepared. A diluted stock of 300 mM was prepared from the 1 M stock in 100% DMSO, and a final dilution was obtained using the extracellular solution to give a working concentration of 300 μM (1:1000, 0.1% final DMSO concentration). Stock solutions of the testing compounds (10 mM; 100% DMSO; stored at − 20 °C) were freshly prepared, as well. Further dilution of these stock solutions to a final concentration of 300 μM was performed from the 10 mM stock in 100% DMSO, and the working dilutions were performed just before the experiments using the extracellular solution containing 300 μM menthol. The highest concentration tested was 300 nM, with serial dilutions (1:10). DMSO was balanced to keep it constant throughout all the solutions in the same experiment (0.2% final DMSO concentration). Standard whole-cell voltage clamp experiments were performed at room temperature using the multihole technology. For the voltage clamp experiments on human TRPM8, data were sampled at 2 kHz. After establishment of the seal and the passage in the whole cell configuration, the cells were subjected to a voltage ramp (20 ms step at − 60 mV; 100 ms ramp − 60/ + 100 mV; 20 ms step at + 100 mV; return to − 60 mV) every 4 s. The antagonistic effect on human TRPM8 current of target compounds was evaluated after application of the agonist (menthol, 300 μM), in the absence or presence of increasing concentrations of the compound under investigation. Outward current evoked by the voltage ramp, measured in the step at + 100 mV were measured. The intracellular solution contained (mM) 135 CsCl, 10 BAPTA, 10 HEPES, 4 Na2ATP (pH 7.2 with CsOH). The extracellular solution contained (mM) 145 NaCl, 4 KCl, 1 MgCl2, 2 CaCl2, 10 HEPES, 10 glucose (pH 7.4 with NaOH). TRPM8 modulation by final compounds 3 and 6 has been previously determined by patch clamp measurements[29],[30].

[9] = system: LNCaP cells; test: DNA synthesis (BrdU incorporation) in LNCaP cells; assay type: cell-based, human; details: 10 nM R1881, compound 1 μM
Method: as §1, with “Cells on coverslips were pulsed in vivo with BrdU (Sigma-Aldrich; at 100 μM, final concentration) and left unchallenged or challenged with 10 nM R1881 for 18 h, in the absence or presence of the indicated compounds.” left out

[10] = system: LNCaP cells; set-up: method as in PMID 33288740; details: cited from earlier work
[11] = fourth group of list (probably IP anti-AR)

T1 sequence (Q7Z2W7 whole entry): as the sequence (Q7Z2W7 whole entry, one chain of several) above

**Q.** Which “% Efficacy” value [1] does the source give for `c1ccc(Oc2ccc(CNCCc3c[nH]c4ccccc34)cc2)cc1` [Compound 3] here?
**A.** Its value is 100.0 ±8.4%.

**Q.** Which results are given for `CNC(=O)c1ccc(N2C(=S)N(c3ccc(C#N)c(C(F)(F)F)c3)C(=O)C2(C)C)cc1F` [Enzalutamide]?
**A.** BrdU incorporation [2]: did not observe any effect; androgen-induced PSA secretion ([3]; R1881, 48 h): strongly inhibited; PSA secretion when used alone ([3]; no R1881): Neither the two TRPM8 antagonists, nor enzalutamide did modify such response; androgen-elicited activation of FAK, paxillin, ERK, RSK and Src [4]: impaired at similar extent; androgen-induced AR/TRPM8 complex assembly ([5]; 10 nM R1881, 10 min, enzalutamide 10 μM): perturbed; AR, Average (n=3) [5, 11]: 1,1; TRPM8, Average (n=3) [5, 11]: 0,3; AR, Average (n=3) ([5]; second group of list): 0,1; TRPM8, Average (n=3) ([5]; second group of list): 0,1; AR, Average (n=3) ([5]; third group of list): 1; TRPM8, Average (n=3) ([5]; third group of list): 0; AR, Average (n=3) [6]: 1,1; TRPM8, Average (n=3) [7]: 1,1

**Q.** With `O=[N+]([O-])c1ccc(Sc2[nH]c3ccccc3c2CCNCc2ccc(Oc3ccccc3)cc2)c([N+](=O)[O-])c1` [Compound 5] as the compound, how does the IC50 ([8]; 300 µM menthol-evoked currents, read-out: Potency IC50) read?
**A.** Its IC50 is 0.34 ± 0.026 µM.

**Q.** What about the IC50 ([8]; TRPM8 antagonist, menthol-evoked currents, one range for both compounds, read-out: IC50) of the same compound?
**A.** Its IC50 is 0.204 to 0.34 µM.

**Q.** What about the “inhibitory effect on menthol-evoked TRPM8 currents” value [8] of the same compound?
**A.** Its value is “concentration-dependent”.

**Q.** Which IC50 ([8]; TRPM8 antagonist, read-out: IC50) does the source give for `Cn1cc(CNCCc2ccc(-c3ccccc3)cc2)c2cc(CNc3ccc(F)cc3)ccc21` [Compound 9] here?
**A.** Its IC50 is 5 µM.

**Q.** What about the “inhibitory effect on menthol-evoked TRPM8 currents” value [8] of the same compound?
**A.** Its value is “concentration-dependent”.

**Q.** What about the “inhibitory effect on R1881-stimulated DNA synthesis, compared with 3 and 5” value [9] of the same compound?
**A.** The value was “stronger”.

**Q.** For `COc1ccc(NC(=O)[C@@H]2C[C@H](C)CC[C@H]2C(C)C)cc1` [WS-12], which “viability of LNCaP cells” value [10] is on record?
**A.** Its value is “slightly modify”.

— paper PMC8636514, “Therapeutic potential of TRPM8 antagonists in prostate cancer” (Scientific Reports, 2021)
